According to ChEMBL document CHEMBL4715876 (J Med Chem, 2020):
Values after ≈ are worked out from the molar mass of the structure shown.

Key:
[1] = Tmax in BALB/C mouse at 10 mg/kg, po measured upto 24 hrs by LC-MS analysis; assay type: ADME, organism-based; details: in vivo
[2] = Cmax in BALB/C mouse at 10 mg/kg,po measured upto 24 hrs by LC-MS analysis; assay type: ADME, organism-based; design: route oral, dose 10 mg/kg, time <= 24; details: in vivo
[3] = AUClast in BALB/C mouse at 10 mg/kg,po measured upto 24 hrs by LC-MS analysis; assay type: ADME, organism-based; design: route oral, dose 10 mg/kg, time <= 24; details: in vivo
[4] = Oral bioavailability in BALB/C mouse at 10 mg/kg measured upto 24 hrs by LC-MS analysis; assay type: ADME, organism-based; details: in vivo
[5] = Tmax in BALB/C mouse at 1 mg/kg, iv measured upto 24 hrs by LC-MS analysis; assay type: ADME, organism-based; details: in vivo
[6] = Cmax in BALB/C mouse at 1 mg/kg, iv measured upto 24 hrs by LC-MS analysis; assay type: ADME, organism-based; design: route intravenous, dose 1 mg/kg, time <= 24; details: in vivo
[7] = AUClast in BALB/C mouse at 1 mg/kg, iv measured upto 24 hrs by LC-MS analysis; assay type: ADME, organism-based; design: route intravenous, dose 1 mg/kg, time <= 24; details: in vivo
[8] = Volume of distribution at steady state in BALB/C mouse at 1 mg/kg, iv measured upto 24 hrs by LC-MS analysis; assay type: ADME, organism-based; details: in vivo, read-out: Vdss
[9] = Lipophilicity, log D of compound at pH 7.4; assay type: physicochemical; details: buffer
[10] = Solubility of the compound; assay type: physicochemical
[11] = Tmax in BALB/C mouse at 10 mg/kg, iv measured upto 24 hrs by LC-MS analysis; assay type: ADME, organism-based; details: in vivo
[12] = Cmax in BALB/C mouse at 10 mg/kg, iv measured upto 24 hrs by LC-MS analysis; assay type: ADME, organism-based; design: route intravenous, dose 10 mg/kg, time <= 24; details: in vivo
[13] = AUClast in BALB/C mouse at 10 mg/kg, iv measured upto 24 hrs by LC-MS analysis; assay type: ADME, organism-based; design: route intravenous, dose 10 mg/kg, time <= 24; details: in vivo
[14] = Tmax in Sprague-Dawley rat at 2 mg/kg, iv measured upto 24 hrs by LC-MS/MS analysis; assay type: ADME, organism-based; details: in vivo
[15] = Cmax in Sprague-Dawley rat at 2 mg/kg, iv measured upto 24 hrs by LC-MS/MS analysis; assay type: ADME, organism-based; design: route intravenous, dose 2 mg/kg, time <=24; details: in vivo
[16] = AUClast in Sprague-Dawley rat at 2 mg/kg, iv measured upto 24 hrs by LC-MS/MS analysis; assay type: ADME, organism-based; design: route intravenous, dose 2 mg/kg, time <=24; details: in vivo
[17] = Volume of distribution at steady state in Sprague-Dawley rat at 2 mg/kg, iv measured upto 24 hrs by LC-MS/MS analysis; assay type: ADME, organism-based; details: in vivo, read-out: Vdss
[18] = Tmax in Sprague-Dawley rat at 10 mg/kg, po measured upto 24 hrs by LC-MS/MS analysis; assay type: ADME, organism-based; details: in vivo
[19] = Cmax in Sprague-Dawley rat at 10 mg/kg, po measured upto 24 hrs by LC-MS/MS analysis; assay type: ADME, organism-based; design: route oral, dose 10 mg/kg, time <=24; details: in vivo
[20] = Oral bioavailability in Sprague-Dawley rat at 10 mg/kg measured upto 24 hrs by LC-MS/MS analysis; assay type: ADME, organism-based; details: in vivo
[21] = Cmax in Beagle dog at 1 mg/kg, iv measured upto 24 hrs by LC-MS/MS analysis; assay type: ADME, organism-based, Canis lupus familiaris; design: route intravenous, dose 1 mg/kg, time <=24; details: in vivo
[22] = AUClast in Beagle dog at 1 mg/kg, iv measured upto 24 hrs by LC-MS/MS analysis; assay type: ADME, organism-based, Canis lupus familiaris; design: route intravenous, dose 1 mg/kg, time <=24; details: in vivo
[23] = Volume of distribution at steady state in Beagle dog at 1 mg/kg, iv measured upto 24 hrs by LC-MS/MS analysis; assay type: ADME, organism-based, Canis lupus familiaris; details: in vivo, 1 mg/kg, 24 h
[24] = Tmax in Beagle dog at 5 mg/kg, po measured upto 24 hrs by LC-MS/MS analysis; assay type: ADME, organism-based, Canis lupus familiaris; details: in vivo
[25] = Cmax in Beagle dog at 5 mg/kg, po measured upto 24 hrs by LC-MS/MS analysis; assay type: ADME, organism-based, Canis lupus familiaris; design: route oral, dose 5 mg/kg, time <=24; details: in vivo
[26] = AUClast in Beagle dog at 5 mg/kg, po measured upto 24 hrs by LC-MS/MS analysis; assay type: ADME, organism-based, Canis lupus familiaris; design: route oral, dose 5 mg/kg, time <=24; details: in vivo
[27] = Oral bioavailability in Beagle dog at 5 mg/kg measured upto 24 hrs by LC-MS/MS analysis; assay type: ADME, organism-based, Canis lupus familiaris; details: in vivo
[28] = Tmax in BALB/C mouse at 30 mg/kg, po measured upto 24 hrs by LC-MS analysis; assay type: ADME, organism-based; details: in vivo
[29] = Cmax in BALB/C mouse at 30 mg/kg,po measured upto 24 hrs by LC-MS analysis; assay type: ADME, organism-based; design: route oral, dose 30 mg/kg, time <= 24; details: in vivo
[30] = Oral bioavailability in BALB/C mouse at 30 mg/kg measured upto 24 hrs by LC-MS analysis; assay type: ADME, organism-based; details: in vivo
[31] = Drug uptake in CB.17 SCID mouse tumor xenografted with OCI-LY10 cells at 3 mg/kg, po once daily for 24 days; assay type: ADME, organism-based, Neoplasm; details: time 24 day, read-out: Drug uptake
[32] = Plasma concentration in CB.17 SCID mouse xenografted with OCI-LY10 cells at 3 mg/kg, po once daily for 24 days; assay type: ADME, organism-based; details: time 24 day
[33] = Drug uptake in CB.17 SCID mouse tumor xenografted with TMD-8 cells at 3 mg/kg, po once daily for 19 days; assay type: ADME, organism-based, Neoplasm; details: time 19 day, read-out: Drug uptake
[34] = Plasma concentration in CB.17 SCID mouse xenografted with TMD-8 cells at 3 mg/kg, po once daily for 19 days; assay type: ADME, organism-based; details: time 19 day
[35] = Drug uptake in CB.17 SCID mouse tumor xenografted with SUDHL-6 cells assessed as effect on body weight at 5 mg/kg, po once daily for 15 days; assay type: ADME, organism-based, Neoplasm; details: time 15 day, read-out: Drug uptake
[36] = Plasma concentration in CB.17 SCID mouse tumor xenografted with SUDHL-6 cells assessed as effect on body weight at 5 mg/kg, po once daily for 15 days; assay type: ADME, organism-based; details: time 15 day
[37] = Tmax in Sprague-Dawley rat at 3 mg/kg, iv measured upto 24 hrs by LC-MS/MS analysis; assay type: ADME, organism-based; details: in vivo
[38] = Cmax in Sprague-Dawley rat at 3 mg/kg, iv measured upto 24 hrs by LC-MS/MS analysis; assay type: ADME, organism-based; design: route intravenous, dose 3 mg/kg, time <=24; details: in vivo
[39] = Volume of distribution at steady state in Sprague-Dawley rat at 3 mg/kg, iv measured upto 24 hrs by LC-MS/MS analysis; assay type: ADME, organism-based; details: in vivo, read-out: Vdss
[40] = Tmax in Sprague-Dawley rat at 3 mg/kg, po measured upto 24 hrs by LC-MS/MS analysis; assay type: ADME, organism-based; details: in vivo
[41] = Cmax in Sprague-Dawley rat at 3 mg/kg, po measured upto 24 hrs by LC-MS/MS analysis; assay type: ADME, organism-based; design: route oral, dose 3 mg/kg, time <=24; details: in vivo
[42] = Tmax in Beagle dog at 1 mg/kg, iv measured upto 24 hrs by LC-MS/MS analysis; assay type: ADME, organism-based, Canis lupus familiaris; details: in vivo
[43] = Tmax in Beagle dog at 1 mg/kg, po measured upto 24 hrs by LC-MS/MS analysis; assay type: ADME, organism-based, Canis lupus familiaris; details: in vivo
[44] = Cmax in Beagle dog at 1 mg/kg, po measured upto 24 hrs by LC-MS/MS analysis; assay type: ADME, organism-based, Canis lupus familiaris; design: route oral, dose 1 mg/kg, time <=24; details: in vivo
[45] = Oral bioavailability in Beagle dog at 1 mg/kg measured upto 24 hrs by LC-MS/MS analysis; assay type: ADME, organism-based, Canis lupus familiaris; details: in vivo
[46] = Volume of distribution at steady state in BALB/C mouse at 10 mg/kg, iv measured upto 24 hrs by LC-MS analysis; assay type: ADME, organism-based; details: in vivo, read-out: Vdss
in vivo = details: BALB/C, mouse, po, 30 mg/kg

## C[C@H](Nc1nc(N)nc(N)c1C#N)c1cc2ccc(F)cn2c(=O)c1-c1ccccc1
[1]
  Tmax: 30 min
[2]
  Cmax: 2600 nM
[3]
  AUC(0-t) at 24 h: 3.5 µM·h
[4]
  bioavailability: 22%
[5]
  Tmax: 4.8 min
[6]
  Cmax: 2300 nM
[7]
  AUC(0-t) at 24 h: 1.6 µM·h
[8]
  Vd: 1.3 L/kg
[9]
  logD: 1.26
[10]
  solubility: 691 µM (≈ 287 µg/mL)

## C[C@H](Nc1nc(N)nc(N)c1C#N)c1c(-c2ccccc2)c(=O)n2cc(F)ccc2c1C1CC1
[1]
  Tmax: 60 min
[2]
  Cmax: 1300 nM
[3]
  AUC(0-t) at 24 h: 2.4 µM·h
[4]
  bioavailability: 16%
[5]
  Tmax: 4.8 min
[6]
  Cmax: 1400 nM
[7]
  AUC(0-t) at 24 h: 1.5 µM·h
[8]
  Vd: 1.8 L/kg

## C[C@H](Nc1ncnc2[nH]cnc12)c1nc2cccc(Cl)c2c(=O)n1-c1ccccc1
[11]
  Tmax: 4.98 min
[12]
  Cmax: 13300 nM
[13]
  AUC(0-t) at 24 h: 4.55 µM·h
[1]
  Tmax: 4.98 min
[2]
  Cmax: 930 nM
[3]
  AUC(0-t) at 24 h: 0.328 µM·h
[4]
  bioavailability: 7%
[14]
  Tmax: 4.98 min
[15]
  Cmax: 3640 nM
[16]
  AUC(0-t) at 24 h: 2.77 µM·h
[17]
  Vd: 1.66 L/kg
[18]
  Tmax: 72 min
[19]
  Cmax: 1880 nM
[20]
  bioavailability: 57%
[21]
  Cmax: 1200 nM
[22]
  AUClast: 1.88 µM·h
[23]
  Vdss: 57 L/kg
[24]
  Tmax: 79.8 min
[25]
  Cmax: 5680 nM
[26]
  AUClast: 26.25 µM·h
[27]
  F: 40%

## C[C@H](Nc1nc(N)nc(N)c1C#N)c1cc(=O)n2cc(F)ccc2c1-c1cc(F)cc(F)c1
[1]
  Tmax: 30 min
[2]
  Cmax: 4700 nM
[3]
  AUC(0-t) at 24 h: 12 µM·h
[4]
  bioavailability: 60%
[5]
  Tmax: 4.8 min
[6]
  Cmax: 1100 nM
[7]
  AUC(0-t) at 24 h: 2 µM·h
[8]
  Vd: 1.9 L/kg
[9]
  logD: 1.88
[10]
  solubility: 368 µM (≈ 166 µg/mL)

## CC[C@H](Nc1ncnc2[nH]cnc12)c1nc2cccc(F)c2c(=O)n1-c1ccccc1 [IDELALISIB]
[13]
  AUC(0-t) at 24 h: 7.43 µM·h
[28]
  Tmax: 15 min
[29]
  Cmax: 6980 nM
[30]
  bioavailability: 37.6%
[31]
  concentration at 576 h: 150 nM
[32]
  concentration at 576 h: 40 nM
[33]
  concentration at 456 h: 140 nM
[34]
  concentration at 456 h: 20 nM
[35]
  concentration at 360 h: 80 nM
[36]
  concentration at 360 h: 30 nM
[37]
  Tmax: 4.8 min
[38]
  Cmax: 3460 nM
[39]
  Vd: 2.49 L/kg
[40]
  Tmax: 180 min
[41]
  Cmax: 310 nM
[42]
  Tmax: 4.8 min
[43]
  Tmax: 60 min
[44]
  Cmax: 500 nM
[45]
  bioavailability: 48%
[46]
  Vd: 0.73 L/kg
In vivo
  AUC(0-t) at 24 h: 9.25 µM·h
